Assay results as given in patent publication US8871728B2, “Non-peptide macrocyclic histone deacetylese (HDAC) inhibitors and methods of making and using thereof” (Georgia Tech Research Corporation, priority 2007, dated 2014).
Read-outs that look alike come from different tables or passages of the source.

Columns and labels:
Test in all cases: SAMDI mass spectrometry HDAC inhibition assay
Type in all cases: biochemical
HDAC1 = HDAC1 (Homo sapiens (Human), UniProt Q13547); conditions: for HDAC1 inhibition in words / HDAC1 inhibition, symbol: SAMDI
Method: (§1) There is precedence that fluorescently labeled substrates can perturb enzyme activity and the effect of inhibitors. […] Additionally, 3-hydroxypyridine-2-ones are highly colored solids and might lead to false positive signals. Mindful of these facts, a label-free SAMDI (self-assembled monolayers for MALDI) mass spectrometry assay was also used to assess HDAC inhibition.
(§2) The SAMDI technique, wherein self-assembled monolayers (SAM) of alkanethiolates on gold are analyzed by matrix assisted laser desorption/ionization (MALDI) mass spectrometry, has been widely used to characterize many biochemical activities, including the deacetylase enzyme family.

HDAC8 = HDAC8 (Homo sapiens (Human), UniProt Q9BY41)
Method: as §1, §2

HDAC6 = HDAC6 (Homo sapiens (Human), UniProt Q9UBN7); conditions: for HDAC6 inhibition in words / HDAC6 inhibition, symbol / IC50: SAMDI; for inhibition at 10 µM: read-out: HDAC6 % inhibition; for IC50: read-out: HDAC6 IC50
Method: as §1
as §2, with “family. The SAMDI assay was used to measure the inhibition constant (K1) of fragments against HDAC1, HDAC6 and HDAC8 using a previously identified preferred HDAC substrate.” for “family.”

[1] = at 10 μM, given if the IC50 was above 10 μM
[2] = SAMDI, read-out: HDAC8 activity (IC50)

Chain of HDAC8 (Q9BY41 whole entry): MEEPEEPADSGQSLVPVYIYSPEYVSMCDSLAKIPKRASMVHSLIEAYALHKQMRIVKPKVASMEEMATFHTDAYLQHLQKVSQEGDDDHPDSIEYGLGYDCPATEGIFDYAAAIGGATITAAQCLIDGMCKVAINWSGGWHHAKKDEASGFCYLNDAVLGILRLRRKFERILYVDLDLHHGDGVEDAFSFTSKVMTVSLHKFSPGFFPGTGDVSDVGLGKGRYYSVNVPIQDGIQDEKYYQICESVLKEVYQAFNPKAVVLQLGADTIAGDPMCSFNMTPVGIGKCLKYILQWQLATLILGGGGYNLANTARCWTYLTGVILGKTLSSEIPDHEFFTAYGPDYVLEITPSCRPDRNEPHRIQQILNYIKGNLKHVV
Chain of HDAC1 (Q13547 whole entry): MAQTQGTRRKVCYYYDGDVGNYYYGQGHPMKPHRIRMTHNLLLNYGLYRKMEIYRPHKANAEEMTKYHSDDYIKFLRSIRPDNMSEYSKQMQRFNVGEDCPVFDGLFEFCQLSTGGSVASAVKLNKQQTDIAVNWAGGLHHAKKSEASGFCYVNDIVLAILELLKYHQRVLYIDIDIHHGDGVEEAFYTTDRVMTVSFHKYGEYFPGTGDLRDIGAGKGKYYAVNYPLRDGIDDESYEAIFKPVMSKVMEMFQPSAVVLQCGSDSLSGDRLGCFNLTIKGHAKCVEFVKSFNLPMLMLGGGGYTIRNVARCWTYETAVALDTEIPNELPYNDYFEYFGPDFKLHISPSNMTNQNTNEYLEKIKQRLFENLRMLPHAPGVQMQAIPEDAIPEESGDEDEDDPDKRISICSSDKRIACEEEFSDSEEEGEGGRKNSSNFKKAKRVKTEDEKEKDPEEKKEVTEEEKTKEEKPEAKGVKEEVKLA
Chain of HDAC6 (Q9UBN7 whole entry): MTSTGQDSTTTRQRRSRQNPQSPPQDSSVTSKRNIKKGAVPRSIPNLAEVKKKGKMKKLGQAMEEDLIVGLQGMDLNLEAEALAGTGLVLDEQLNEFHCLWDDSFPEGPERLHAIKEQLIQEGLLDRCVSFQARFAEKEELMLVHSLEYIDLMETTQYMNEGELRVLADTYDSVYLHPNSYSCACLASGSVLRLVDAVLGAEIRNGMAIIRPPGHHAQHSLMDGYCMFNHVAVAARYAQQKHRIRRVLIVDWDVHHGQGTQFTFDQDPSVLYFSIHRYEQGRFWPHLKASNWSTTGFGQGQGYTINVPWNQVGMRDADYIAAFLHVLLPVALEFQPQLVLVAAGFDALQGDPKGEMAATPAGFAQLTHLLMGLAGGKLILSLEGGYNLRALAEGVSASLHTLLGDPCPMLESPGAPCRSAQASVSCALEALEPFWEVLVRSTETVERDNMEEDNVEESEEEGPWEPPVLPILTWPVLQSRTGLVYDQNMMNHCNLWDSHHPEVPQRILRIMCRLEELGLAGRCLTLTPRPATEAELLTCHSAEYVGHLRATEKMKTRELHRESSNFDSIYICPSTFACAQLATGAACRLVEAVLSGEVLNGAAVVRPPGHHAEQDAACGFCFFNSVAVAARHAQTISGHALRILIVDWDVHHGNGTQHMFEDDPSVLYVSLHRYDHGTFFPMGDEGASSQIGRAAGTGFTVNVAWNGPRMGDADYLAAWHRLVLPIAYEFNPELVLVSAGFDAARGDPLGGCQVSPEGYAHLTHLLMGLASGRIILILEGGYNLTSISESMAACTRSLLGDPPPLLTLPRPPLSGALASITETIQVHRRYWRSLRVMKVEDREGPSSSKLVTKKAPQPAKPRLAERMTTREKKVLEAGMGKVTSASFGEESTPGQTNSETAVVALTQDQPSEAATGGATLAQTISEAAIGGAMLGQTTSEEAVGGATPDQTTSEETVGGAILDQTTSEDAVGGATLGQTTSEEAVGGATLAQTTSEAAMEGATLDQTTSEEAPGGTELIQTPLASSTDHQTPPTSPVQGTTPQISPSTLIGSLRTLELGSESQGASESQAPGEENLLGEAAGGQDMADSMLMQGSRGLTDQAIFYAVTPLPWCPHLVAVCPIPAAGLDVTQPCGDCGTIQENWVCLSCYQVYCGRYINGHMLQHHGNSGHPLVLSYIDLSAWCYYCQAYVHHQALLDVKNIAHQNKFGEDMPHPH

Row | Compound | HDAC1 inhibition, symbol (HDAC1) | HDAC6 inhibition, symbol (HDAC6) | inhibition at 10 µM (HDAC8; [1]) | inhibition at 10 µM (HDAC1; [1]) | further results
1 | O=c1[nH]cccc1O [3-hydroxypyridine-2-one, reference compound] | NI (No significant Inhibition (below 20% Inhibition)) | NI (No significant Inhibition (below 20% Inhibition)) | – | – | HDAC1 inhibition in words (HDAC1): inactive; HDAC8 inhibition in words (HDAC8; SAMDI): inactive; HDAC8 inhibition, symbol (HDAC8; SAMDI): NI (No significant Inhibition (below 20% Inhibition)); HDAC6 inhibition in words (HDAC6): inactive
2 | Cc1ccccc1-c1ccc(Cn2cccc(O)c2=O)cc1 [Compound 148f, 1-(2-Methyl-(1,1′-biphenylmethyl))-3-hydroxyoxypyridine-2-one] | NI (No significant Inhibition (below 20% Inhibition)) | NI (No significant Inhibition (below 20% Inhibition)) | 9% | – | –
3 | O=c1c(O)cccn1Cc1ccccc1 [Compound 142b, 1-Benzyl-3-hydroxypyridine-2-one] | NI (No significant Inhibition (below 20% Inhibition)) | NI (No significant Inhibition (below 20% Inhibition)) | 8% | – | –
4 | N#Cc1ccccc1-c1ccc(Cn2cccc(O)c2=O)cc1 [Compound 148c, 1-(2-Cyano-(1,1′-biphenylmethyl))-3-hydroxyoxypyridine-2-one] | NI (No significant Inhibition (below 20% Inhibition)) | – | 9% | – | inhibition at 10 µM (HDAC6): 5%
5 | Cc1ccc(-c2cn(CCCCCn3cccc(O)c3=O)nn2)cc1 [Compound 166a, 1-(4-Tolyl)triazolylpentyl-3-hydroxypyridine-2-one] | – | NI (No significant Inhibition (below 20% Inhibition)) | 15% | 66% | –
6 | CN(C)c1ccc(-n2cc(Cn3cccc(O)c3=S)nn2)cc1 [Compound 154b, 1-(4-Dimethylamino)phenylltriazolylmethyl-3-hydroxypyridine-2-thione] | NI (No significant Inhibition (below 20% Inhibition)) | – | – | – | IC50 (HDAC8; SAMDI, read-out: HDAC8 IC50): 1.87 ± 0.723 µM; IC50 (HDAC6): 1.02 ± 0.099 µM
7 | N#Cc1ccc(-c2cn(CCCCCn3cccc(O)c3=O)nn2)cc1 [Compound 166d, 1-(4-Benzonitrile)triazolylpentyl-3-hydroxypyridine-2-one] | – | NI (No significant Inhibition (below 20% Inhibition)) | 26% | 70% | –
8 | Oc1ccc[nH]c1=S [3-hydroxypyridine-2-thione, reference compound] | NI (No significant Inhibition (below 20% Inhibition)) | – | – | – | HDAC1 inhibition in words (HDAC1): inactive; HDAC8 inhibition in words (HDAC8; SAMDI): low micromolar IC50 values; IC50 (HDAC8; Table 14, read-out: HDAC 8 (nm)): 3.68 ± 1.2 µM; HDAC6 inhibition in words (HDAC6): low micromolar IC50 values; IC50 (HDAC6): 0.681 ± 0.11 µM
9 | O=c1c(O)cccn1Cc1ccc(-c2ccccc2)cc1 [Compound 142c, 1-(1,1′-Biphenylmethyl)-3-hydroxypyridine-2-one] | NI (No significant Inhibition (below 20% Inhibition)) | NI (No significant Inhibition (below 20% Inhibition)) | 8% | – | –
10 | CN(C)c1ccc(-c2ccc(Cn3cccc(O)c3=O)cc2)cc1 [Compound 148g, 1-(4-Dimethylamino-(1,1′-biphenylmethyl))-3-hydroxyoxypyridine-2-one] | NI (No significant Inhibition (below 20% Inhibition)) | – | 35% | – | inhibition at 10 µM (HDAC6): 11%
11 | N#Cc1ccc(-c2cn(CCCCCn3cccc(O)c3=S)nn2)cc1 [Compound 167d, 1-(4-Benzonitrile)triazolylpentyl-3-hydroxypyridine-2-thione] | – | – | – | 33% | IC50 (HDAC8; SAMDI, read-out: HDAC8 IC50): 1.47 µM; IC50 (HDAC6): 0.905 ± 0.249 µM
12 | Cc1ccc(-c2ccc(Cn3cccc(O)c3=O)cc2)cc1 [Compound 148d, 1-(4-Methyl-(1,1′-biphenylmethyl))-3-hydroxyoxypyridine-2-one] | NI (No significant Inhibition (below 20% Inhibition)) | NI (No significant Inhibition (below 20% Inhibition)) | 25% | – | –
13 | Oc1cccn(Cc2ccc(-c3ccccc3)cc2)c1=S [Compound 144c, 1-(1,1′-Biphenylmethyl)-3-hydroxypyridine-2-thione] | NI (No significant Inhibition (below 20% Inhibition)) | – | – | – | IC50 (HDAC8; SAMDI, read-out: HDAC8 IC50): 4.28 ± 1.55 µM; IC50 (HDAC6): 0.847 ± 0.188 µM
14 | O=c1c(O)cccn1Cc1ccc(-c2ccncc2)cc1 [Compound 148i, 1-(4-(Pyridine-4-yl)benzyl)-3-hydroxypyridine-2-one] | NI (No significant Inhibition (below 20% Inhibition)) | NI (No significant Inhibition (below 20% Inhibition)) | 16% | – | –
15 | O=c1c(O)cccn1CCCCCCCn1cc(-c2ccccc2)nn1 [Compound 159f, 1-Phenyltriazolylheptyl-3-hydroxypyridine-2-one] | – | – | – | – | HDAC1 % inhibition (HDAC1; [1]): 2%; HDAC8 % inhibition (HDAC8; [1]): 42%; HDAC6 % inhibition (HDAC6; [1]): 34%
16 | Cc1ccc(-c2ccc(Cn3cccc(O)c3=S)cc2)cc1 [Compound 149d, 1-(4-Methyl-(1,1′-biphenylmethyl))-3-hydroxyoxypyridine-2-thione] | NI (No significant Inhibition (below 20% Inhibition)) | – | – | – | IC50 (HDAC8; SAMDI, read-out: HDAC8 IC50): 0.8 ± 0.304 µM; IC50 (HDAC6): 0.454 ± 0.042 µM
17 | Cc1ccccc1-c1cn(CCCCCn2cccc(O)c2=O)nn1 [Compound 166c, 1-(2-Tolyl)triazolylpentyl-3-hydroxypyridine-2-one] | – | NI (No significant Inhibition (below 20% Inhibition)) | 4% | – | –
18 | N#Cc1cccc(-c2ccc(Cn3cccc(O)c3=S)cc2)c1 [Compound 149b, 1-(3-Cyano-(1,1′-biphenylmethyl))-3-hydroxyoxypyridine-2-thione] | NI (No significant Inhibition (below 20% Inhibition)) | – | – | – | IC50 (HDAC8; SAMDI, read-out: HDAC8 IC50): 1.7 ± 0.717 µM; IC50 (HDAC8; [2]): ~2 µM; inhibition at 10 µM (HDAC6): 44%
19 | CN(C)c1ccc(-c2cn(CCCCCn3cccc(O)c3=S)nn2)cc1 [Compound 167f] | – | – | – | 28% | IC50 (HDAC8; SAMDI, read-out: HDAC8 IC50): 1.48 µM; IC50 (HDAC6): 1.01 ± 0.425 µM
20 | N#Cc1ccc(-c2ccc(Cn3cccc(O)c3=S)cc2)cc1 [Compound 149a, 1-(4-Cyano-(1,1′-biphenylmethyl))-3-hydroxyoxypyridine-2-thione] | NI (No significant Inhibition (below 20% Inhibition)) | – | – | – | IC50 (HDAC8; SAMDI, read-out: HDAC8 IC50): 2.08 ± 0.459 µM; IC50 (HDAC8; [2]): ~2 µM; IC50 (HDAC6): 0.957 ± 0.159 µM
21 | O=c1c(O)cccn1CCn1cc(-c2ccccc2)nn1 [Compound 159a, 1-Phenyltriazolylethyl-3-hydroxypyridine-2-one] | – | NI (No significant Inhibition (below 20% Inhibition)) | 15% | 12% | –
22 | Oc1cccn(CCCn2cc(-c3ccccc3)nn2)c1=S [Compound 162b, 1-Phenyltriazolylpropyl-3-hydroxypyridine-2-thione] | – | – | 63% | 27% | –
23 | Cc1cccc(-c2cn(CCCCCn3cccc(O)c3=S)nn2)c1 [Compound 167b, 1-(3-Tolyl)triazolylpentyl-3-hydroxypyridine-2-thione] | – | – | – | 19% | –
24 | Cc1ccc(-c2cn(CCCCCn3cccc(O)c3=S)nn2)cc1 [Compound 167a, 1-(4-Tolyl)triazolylpentyl-3-hydroxypyridine-2-thione] | – | – | – | 31% | –
25 | Oc1cccn(CCCCCCn2cc(-c3ccccc3)nn2)c1=S [Compound 162e, 1-Phenyltriazolylhexyl-3-hydroxypyridine-2-thione] | – | – | – | 23% | inhibition at 10 µM (HDAC6): 22%
